≈ marks a conversion by molar mass, not a printed value.
Assays:
E. coli = assay type: cell-based
S. aureus = assay type: cell-based
S. enteritidis = assay type: cell-based
B. abortus = assay type: cell-based
S. flexneri = assay type: cell-based
M. tuberculosis [1] = assay type: cell-based
[2] = system: S. aureus clinical isolate that forms biofilms; assay type: cell-based
C. elegans = details: in vivo, 50 µM
M. tuberculosis [3] = details: after 10 days; cited from earlier work

Row | Compound | MIC (E. coli) | MIC (S. aureus) | MIC (S. enteritidis) | MIC (B. abortus) | MIC (S. flexneri) | MIC (M. tuberculosis [1]) | MIC [2] | MIC (M. smegmatis) | viability of C. elegans (C. elegans) | reduction in M. tuberculosis levels within THP-1 macrophages (M. tuberculosis [3])
1 | NC[C@H]1O[C@H](O[C@H]2[C@H](O)[C@@H](O[C@H]3O[C@H](CO)[C@@H](O)[C@H](N)[C@H]3O)[C@H](N)C[C@@H]2N)[C@H](O)[C@@H](O)[C@@H]1O [kanamycin] | 2 µM (≈ 0.969 µg/mL) | 2 µM (≈ 0.969 µg/mL) | 16 µM (≈ 7.75 µg/mL) | 4 µM (≈ 1.94 µg/mL) | 2 µM (≈ 0.969 µg/mL) | 2 µM (≈ 0.969 µg/mL) | 4 µM (≈ 1.94 µg/mL) | 8 µM (≈ 3.88 µg/mL) | > 90% | about 50%
2 | CC[C@H](C)[C@H](NC(=O)CN)C(=O)NCC(=O)N[C@@H](C)C(=O)N[C@H](C(=O)N[C@@H](CC(C)C)C(=O)N[C@@H](CCCCN)C(=O)N[C@H](C(=O)N[C@@H](CC(C)C)C(=O)N[C@H](C(=O)N[C@H](C(=O)NCC(=O)N[C@@H](CC(C)C)C(=O)N1CCC[C@H]1C(=O)N[C@@H](C)C(=O)N[C@@H](CC(C)C)C(=O)N[C@H](C(=O)N[C@@H](CO)C(=O)N[C@@H](Cc1c[nH]c2ccccc12)C(=O)N[C@H](C(=O)N[C@@H](CCCCN)C(=O)N[C@@H](CCCNC(=N)N)C(=O)N[C@@H](CCCCN)C(=O)N[C@@H](CCCNC(=N)N)C(=O)N[C@@H](CCC(N)=O)C(=O)N[C@@H](CCC(N)=O)C(N)=O)[C@@H](C)CC)[C@@H](C)CC)[C@@H](C)O)[C@@H](C)O)C(C)C)C(C)C [melittin] | – | – | – | – | – | – | – | – | no live worms | –

From publication PMC5482217 (Journal of the American Chemical Society, 2016)
